The supplement of paper PMC10307832

Experiments:
Assay in all cases: relative viability (nuclei count vs DMSO), 5 days (fraction); higher = more cells survive
[1] = compound: CC[C@H](Nc1ncnc2[nH]cnc12)c1nc2cccc(F)c2c(=O)n1-c1ccccc1 [Idelalisib] + CS(=O)(=O)N1CCN(Cc2cc3nc(-c4cccc5[nH]ncc45)nc(N4CCOCC4)c3s2)CC1 [Pictilisib] (partner 1 µM)
Summary of the method: (§1)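 The day after seeding in 1536-well plates, lung cancer cell lines were treated by pin tool with a single drug, or with a fixed anchor-drug dose together with five library-drug doses (not always all listed) in √10 steps. After 5 days, a combined fix-and-stain solution (final 0.05% Triton X-100, 1% formaldehyde, 1 ug/ml Hoechst) was added. Nuclei counted on 4× images gave relative viability as treated counts over vehicle counts, reported as the median of duplicate plates.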

[2] = compound: CC[C@H](Nc1ncnc2[nH]cnc12)c1nc2cccc(F)c2c(=O)n1-c1ccccc1 [Idelalisib] + C[C@@H](Oc1cc(-c2cnn(C3CCNCC3)c2)cnc1N)c1c(Cl)ccc(F)c1Cl [Crizotinib] (partner 1 µM)
Summary of the method: as §1

[3] = compound: Nc1nc2[nH]cc(CCc3ccc(C(=O)N[C@@H](CCC(=O)O)C(=O)O)cc3)c2c(=O)[nH]1 [Pemetrexed] + CS(=O)(=O)N1CCN(Cc2cc3nc(-c4cccc5[nH]ncc45)nc(N4CCOCC4)c3s2)CC1 [Pictilisib] (partner 1 µM)
Summary of the method: as §1

[4] = compound: Nc1nc2[nH]cc(CCc3ccc(C(=O)N[C@@H](CCC(=O)O)C(=O)O)cc3)c2c(=O)[nH]1 [Pemetrexed] + NC(=O)Nc1cc(-c2cccc(F)c2)sc1C(=O)N[C@H]1CCCNC1 [AZD7762] (partner 0.2 µM)
Summary of the method: as §1

Cell Line	relative viability ([1]; first compound 0.04 µM)	relative viability ([1]; first compound 0.1265 µM)	relative viability ([1]; first compound 0.4 µM)	relative viability ([1]; first compound 1.265 µM)	relative viability ([1]; first compound 4 µM)	relative viability ([2]; first compound 0.04 µM)	relative viability ([2]; first compound 0.1265 µM)	relative viability ([2]; first compound 0.4 µM)	relative viability ([2]; first compound 1.265 µM)	relative viability ([2]; first compound 4 µM)	relative viability ([3]; first compound 0.002 µM)	relative viability ([3]; first compound 0.006325 µM)	relative viability ([3]; first compound 0.02 µM)	relative viability ([3]; first compound 0.06325 µM)	relative viability ([3]; first compound 0.2 µM)	relative viability ([4]; first compound 0.002 µM)	relative viability ([4]; first compound 0.006325 µM)	relative viability ([4]; first compound 0.02 µM)	relative viability ([4]; first compound 0.06325 µM)	relative viability ([4]; first compound 0.2 µM)
HCC-366	0.138	0.177	0.0975	0.165	0.146	0.891	0.398	0.471	0.464	0.411	0.193	0.133	0.151	0.127	0.14	0.228	0.239	0.308	0.254	0.158
BEN	0.559	0.517	0.531	0.609	0.523	0.875	1.06	0.751	0.886	0.661	0.53	0.564	0.591	0.539	0.525	0.746	0.849	0.765	0.638	0.648
NCI-H2347	0.398	0.69	0.487	0.623	0.756	0.586	0.734	0.64	0.851	0.666	0.392	0.545	0.601	0.525	0.606	0.61	0.831	0.914	0.517	0.428
LCLC-103H	0.756	0.63	0.517	0.586	0.574	1.03	0.986	0.957	1.09	0.839	0.639	0.588	0.714	0.61	0.669	0.642	0.774	0.792	0.775	0.695
NCI-H650	0.849	0.858	0.907	0.819	0.783	0.947	0.673	0.652	0.664	0.669	0.831	0.756	0.861	0.786	0.851	0.966	0.939	–	0.83	0.931
NCI-H1975	0.324	0.295	0.249	0.316	0.271	1.08	0.944	0.817	1	0.81	–	0.3	0.299	0.271	0.221	–	0.819	0.818	0.583	0.35
NCI-H2126	0.525	0.53	0.404	0.515	0.521	1.04	1	0.967	1.03	1.02	0.451	0.479	0.494	0.487	0.436	0.904	0.954	1.06	1.01	0.879
NCI-H2087	0.989	0.743	0.853	0.907	0.904	0.894	0.911	0.901	1.1	0.93	0.692	0.79	0.938	0.67	0.581	1.2	1.22	1.44	1.3	0.799
